Assay results reported in US7294637B2 (Sepracor, Inc., priority 2000, dated 2007).
Read-outs that look alike come from different tables or passages of the source.

Columns and labels:
rats and monkeys = conditions: rats; cited from earlier work
mouse = experiment: Acute toxicity assessment, maximum tolerated dose i.v., mouse; format: in vivo; conditions: mice, 10 mg/kg i.v.
Procedure: (§1) An in vivo evaluation was carried out to determine the maximum tolerated dose of numerous test compounds in two animal species (mouse and rat). The compounds were administered i.v. and the animals were then observed for 72 h. Compounds 114, 115, 113, 110, 124, 125, 129, and 130 were solubilized in 5% dextrose (w/v)/polyethylene glycol 400 (4:1 v/v). Compounds 126, 127, 131, and 132 were solubilized in 10% hydroxypropyl-β-cyclodextrin (w/v).

DAT = DAT (Homo sapiens, UniProt Q01959); experiment: cell-based; design: expressed in transfected cells; conditions: hDAT cell line; read-out: DA Uptake, Functional Assays (antagonism, EC50)
rats [1] = format: in vivo, rat; conditions: for % variation of the total duration of immobility: 1 h before test
Procedure: The animals were preconditioned in a pretest session, where the rats were individually forced to swim inside a vertical plexiglass cylinder containing water maintained at 19-20° C. […] Twenty four hours later, the compounds were administered intraperitoneal to the animals. One hour after administration of the test compound, animals were put back into the cylinder containing water. The total duration of immobility was measured during the last 4 minutes of a 6 minute test.
(§2) The results are expressed as the percentage of variation of the total duration of immobility calculated from the mean value of the vehicle-treated group (% variation=[(immobility duration of vehicle-immobility duration of test compound)/(immobility duration of vehicle)]×100%).

[2] = target: T1, norepinephrine transporter (Homo sapiens, UniProt P23975); experiment: Functional activity, norephinephrine uptake inhibition in MDCK cell lines; format: cell-based
Sprague-Dawley rats [3] = experiment: Spontaneous locomotor activity in rats (Example 141); format: in vivo, rat; conditions: for locomotor activity compared to control animals: dosed at 5 and 10 mg/kg i.p.
Procedure: The effect of 124 and 126 on spontaneous locomotor activity in rats was determined according to the procedures outlined by Silverman et al. (Motor Activity. In “Animal behavior in the laboratory”, Chapman and Hall eds, London, p. 79-92, 1978) and Boissier et al. (Arch. Int. Pharmacodyn. 1965, 158, 212. )
Test items and test item vehicles were administered to male Sprague-Dawley rats (n=10) as a single i.p. dose (vehicle A=10% hydroxypropyl-β-cyclodextrin in water; vehicle B=4:1 5% aqueous dextrose:PEG 400). […] Locomotor activity was determined during 20 minute periods using video image analyzers. Images recorded with video cameras were digitalized and displacements of the center of gravity of the digital image spot were tracked and analyzed. When the speed of displacement of the center of gravity of the spot was below 4.26 cm/sec, the movement was considered as inactivity. When this speed was between 4.26 and 6.75 cm/sec, the movement was considered as a small movement. When this speed was above 6.75 cm/sec, the movement was considered as a large movement. The number of occurrences, distance and duration of fast and slow movements, number of occurrences and duration of periods of inactivity and number of rears were measured.

Sprague-Dawley rats [4] = experiment: Spontaneous locomotor activity in rats, 1-24 hours (Example 223); format: in vivo, rat; conditions: 10 mg/kg i.p.; for locomotor activity compared to control animals: at all times tested (1, 3, 5, 8, 24 hours)
Procedure: The effect of 124 and 126 on spontaneous locomotor activity in rats was determined according to the procedures outlined by Silverman et al. (Motor Activity. In “Animal behavior in the laboratory”, Chapman and Hall eds, London, p. 79-92, 1978) and Boissier et al. (Arch. Int. Pharmacodyn. 1965, 158, 212. ) Test items and test item vehicles were administered to male Sprague-Dawley rats (n=10) as a single i.p. dose. One, three, five, eight and twenty four hours following administration, rats were placed in a plastic box 30×30 cm in a room with low light intensity (maximum 50 lux). Locomotor activity was determined during 20 minute periods using video image analyzers. Images recorded with video cameras were digitalized and displacements of the center of gravity of the digital image spot were tracked and analyzed. When the speed of displacement of the center of gravity of the spot was below 4.26 cm/sec, the movement was considered as inactivity. When this speed was between 4.26 and 6.75 cm/sec, the movement was considered as a small movement. When this speed was above 6.75 cm/sec, the movement was considered as a large movement. The number of occurrences, distance and duration of fast and slow movements, number of occurrences and duration of periods of inactivity and number of rears were measured.

rats [5] = experiment: Behavioral despair assay in rats, 3 i.p. injections (Example 143); format: in vivo, rat; conditions: for % variation of the total duration of immobility: 3 i.p. injections 24 h, 5 h and 1 h before test
Source text: The objective of this study was to assess the antidepressant effects of test compounds 124, 125, 126, and 127 in the behavioral despair assay in rats according to the methods described by Porsolt R. D., Anton G., Blavet N., Jalfre M., Behavioural despair in rats: a new model sensitive to antidepressant treatment, Eur. J. Pharmacol., 1978, 47, 379-391. The animals were preconditioned in a pretest session, where the rats were individually forced to swim inside a vertical plexiglass cylinder containing water maintained at 19-20° C. After 15 minutes in the water, they were allowed to dry for 15 minutes in a heated enclosure. Twenty four hours later, they were replaced in the cylinder and the total duration of immobility was measured during a 5 minute test (test session). The test compounds and vehicle were administered as a series of 3 intraperitoneal injections 24 h, 5 h and 1 h before the 5 minute test on the second day.
as §2

serotonin transporter [6] = target: T2, serotonin transporter (Homo sapiens, UniProt P31645); experiment: 5-HT uptake: displacement of serotonin ligands in vitro (methods of Gu et al.); format: binding; conditions: displacement of serotonin ligands in vitro; read-out: 5-HT Uptake, Uptake Profile (IC50)
rat = experiment: Acute toxicity assessment, maximum tolerated dose i.v., rat; format: in vivo; conditions: rats, 10 mg/kg i.v.
Procedure: as §1

serotonin transporter [7] = target: T2, serotonin transporter; experiment: Functional activity, serotonin uptake inhibition in human HEK-293 cell lines; format: cell-based; design: expressed in transfected cells; host or cells: HEK-293; conditions: human HEK-293 cell lines; read-out: 5-HT Uptake, Functional Assays (antagonism, EC50)
[8] = target: T1, norepinephrine transporter; experiment: NE uptake: displacement of norephinephrine ligands in vitro (methods of Galli et al.); format: binding; conditions: NE Uptake, Uptake Profile (IC50, nM)
dopamine transporter = dopamine transporter (Homo sapiens, UniProt Q01959); experiment: DA uptake: displacement of dopamine ligands in vitro (methods of Gu et al.); conditions: DA Uptake, Uptake Profile (IC50, nM), displacement of dopamine ligands in vitro
dopamine transporter, sequence (Q01959 whole entry): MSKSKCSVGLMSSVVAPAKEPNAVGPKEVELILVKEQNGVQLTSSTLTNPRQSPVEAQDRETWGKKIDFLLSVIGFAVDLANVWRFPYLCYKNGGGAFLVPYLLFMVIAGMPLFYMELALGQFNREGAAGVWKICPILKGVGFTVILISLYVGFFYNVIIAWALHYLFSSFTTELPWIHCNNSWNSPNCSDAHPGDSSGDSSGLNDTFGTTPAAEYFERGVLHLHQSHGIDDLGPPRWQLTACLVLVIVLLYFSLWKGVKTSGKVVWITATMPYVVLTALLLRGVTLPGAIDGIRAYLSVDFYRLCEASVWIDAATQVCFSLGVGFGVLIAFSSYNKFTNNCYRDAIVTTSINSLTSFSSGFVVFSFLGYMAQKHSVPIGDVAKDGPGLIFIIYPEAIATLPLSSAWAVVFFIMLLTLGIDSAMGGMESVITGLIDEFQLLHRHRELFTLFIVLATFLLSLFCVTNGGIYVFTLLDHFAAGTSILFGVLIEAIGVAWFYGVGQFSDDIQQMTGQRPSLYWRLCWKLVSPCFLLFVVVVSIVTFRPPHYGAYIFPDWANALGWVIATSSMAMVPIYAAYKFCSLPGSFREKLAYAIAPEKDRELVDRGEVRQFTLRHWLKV

T2 sequence (P31645 whole entry): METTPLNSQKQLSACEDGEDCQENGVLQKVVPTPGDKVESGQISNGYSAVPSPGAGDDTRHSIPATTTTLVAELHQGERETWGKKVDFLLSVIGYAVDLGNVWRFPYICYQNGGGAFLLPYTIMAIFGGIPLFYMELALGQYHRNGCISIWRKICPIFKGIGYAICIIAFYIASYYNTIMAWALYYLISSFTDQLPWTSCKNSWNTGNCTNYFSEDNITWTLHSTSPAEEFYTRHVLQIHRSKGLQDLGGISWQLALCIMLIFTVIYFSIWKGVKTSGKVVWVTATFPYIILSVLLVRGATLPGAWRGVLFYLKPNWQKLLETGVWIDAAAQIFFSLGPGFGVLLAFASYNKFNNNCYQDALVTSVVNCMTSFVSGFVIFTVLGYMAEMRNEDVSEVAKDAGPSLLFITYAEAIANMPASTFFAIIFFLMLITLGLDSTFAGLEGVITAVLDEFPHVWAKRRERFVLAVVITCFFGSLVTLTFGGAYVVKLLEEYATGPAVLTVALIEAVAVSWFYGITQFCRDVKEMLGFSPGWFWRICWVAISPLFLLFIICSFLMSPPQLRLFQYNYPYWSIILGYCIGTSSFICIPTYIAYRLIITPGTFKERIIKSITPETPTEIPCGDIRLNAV
T1 sequence (P23975 whole entry): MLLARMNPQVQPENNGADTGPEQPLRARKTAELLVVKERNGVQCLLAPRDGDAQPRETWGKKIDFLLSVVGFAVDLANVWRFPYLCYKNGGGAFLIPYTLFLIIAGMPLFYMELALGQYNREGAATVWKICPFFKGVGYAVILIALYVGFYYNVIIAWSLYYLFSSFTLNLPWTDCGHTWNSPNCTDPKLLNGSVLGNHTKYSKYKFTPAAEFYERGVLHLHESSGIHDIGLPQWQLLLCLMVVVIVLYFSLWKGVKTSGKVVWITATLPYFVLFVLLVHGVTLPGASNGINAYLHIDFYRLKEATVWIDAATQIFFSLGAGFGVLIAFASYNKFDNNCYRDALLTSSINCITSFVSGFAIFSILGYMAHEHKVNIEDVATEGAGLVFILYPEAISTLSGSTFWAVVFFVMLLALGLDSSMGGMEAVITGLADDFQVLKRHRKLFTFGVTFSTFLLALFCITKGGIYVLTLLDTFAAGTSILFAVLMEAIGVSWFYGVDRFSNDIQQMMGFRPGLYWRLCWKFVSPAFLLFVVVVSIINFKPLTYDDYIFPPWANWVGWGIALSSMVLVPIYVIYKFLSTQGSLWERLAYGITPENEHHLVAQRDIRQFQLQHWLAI
DAT, sequence (Q01959 whole entry): as the sequence (Q01959 whole entry) above

CNCCC(Oc1ccc(C(F)(F)F)cc1)c1ccccc1 (stereo not drawn) [fluoxetine]
effect on self-administration of cocaine (rats and monkeys): decreased self-administration of cocaine

O[C@H](CN1CCC[C@@H](COc2ccc(C(F)(F)F)cc2)C1)C1(c2ccc(Cl)cc2)CCC1 [compound 126, 1R-1-[1-(4-Chloro-phenyl)-cyclobutyl]-2-[(3R)-3-(4-trifluoromethyl-phenoxymethyl)-piperidin-1-yl]-ethanol]
tolerability and mortality after 72 h (mouse): well tolerated | EC50 (DAT): < 10 nM | effectiveness (statistically significant variation >30%) (rats [1]; 2.5 mg/kg): effective | % variation of the total duration of immobility (rats [1]; 2.5 mg/kg i.p.): 45% | % variation of the total duration of immobility (rats [1]; 10 mg/kg i.p.): 99% | EC50 [2]: < 1000 nM | Small Movement Occurrences (Sprague-Dawley rats [3]; 5 mg/kg i.p.): 651.4 ± 141.2 | Large Movement Occurrences (Sprague-Dawley rats [3]; 5 mg/kg i.p., 20 min): 287.0 ± 34.4 ^ | Small Movement Occurrences (Sprague-Dawley rats [3]; 5 mg/kg i.p., 20 min): 711.6 ± 65.7 ^ | Large Movement Occurrences (Sprague-Dawley rats [3]; 5 mg/kg i.p., 60 min): 204.4 ± 36.3 ^ | Small Movement Occurrences (Sprague-Dawley rats [3]; 5 mg/kg i.p., 60 min): 563.5 ± 85.0 ^ | Large Movement Occurrences (Sprague-Dawley rats [3]; 5 mg/kg i.p., 120 min): 293.8 ± 68.9 ^ | Small Movement Occurrences (Sprague-Dawley rats [3]; 5 mg/kg i.p., 120 min): 717.4 ± 138.6 | Large Movement Occurrences (Sprague-Dawley rats [3]; 5 mg/kg i.p., 180 min): 270.5 ± 73.8 ^ | Large Movement Occurrences (Sprague-Dawley rats [3]; 10 mg/kg i.p., 20 min): 364.7 ± 52.7 ^ | Small Movement Occurrences (Sprague-Dawley rats [3]; 10 mg/kg i.p., 20 min): 904.3 ± 110.8 | Large Movement Occurrences (Sprague-Dawley rats [3]; 10 mg/kg i.p., 60 min): 644.5 ± 127.3 | Small Movement Occurrences (Sprague-Dawley rats [3]; 10 mg/kg i.p., 60 min): 1218.7 ± 178.9 ^ | Large Movement Occurrences (Sprague-Dawley rats [3]; 10 mg/kg i.p., 120 min): 752.7 ± 129.4 | Small Movement Occurrences (Sprague-Dawley rats [3]; 10 mg/kg i.p., 120 min): 1358.1 ± 137.1 ^ | locomotor activity compared to control animals (Sprague-Dawley rats [3]): significant increase | Large Movement Occurrences (Sprague-Dawley rats [4]; 1 hour): 774 ± 110 ^ | Small Movement Occurrences (Sprague-Dawley rats [4]; 1 hour): 1357 ± 125^ | Large Movement Occurrences (Sprague-Dawley rats [4]; 3 hours): 956 ± 93^ | Small Movement Occurrences (Sprague-Dawley rats [4]; 3 hours): 1610 ± 73 ^ | Large Movement Occurrences (Sprague-Dawley rats [4]; 5 hours): 866 ± 117 ^ | Small Movement Occurrences (Sprague-Dawley rats [4]; 5 hours): 1575 ± 90 ^ | Large Movement Occurrences (Sprague-Dawley rats [4]; 8 hours): 746 ± 95^ | Small Movement Occurrences (Sprague-Dawley rats [4]; 8 hours): 1489 ± 111^ | Large Movement Occurrences (Sprague-Dawley rats [4]; 24 hours): 1012 ± 81 ^ | Small Movement Occurrences (Sprague-Dawley rats [4]; 24 hours): 1544 ± 75 ^ | locomotor activity compared to control animals (Sprague-Dawley rats [4]): significant increase | % variation of the total duration of immobility (rats [5]; 0.25 mg/kg): 9% | % variation of the total duration of immobility (rats [5]; 0.75 mg/kg): 47% | effectiveness (statistically significant variation >30%) (rats [5]; 1.0 mg/kg): effective | % variation of the total duration of immobility (rats [5]; 1.0 mg/kg): 58% | effectiveness (statistically significant variation >30%) (rats [5]; 2.5 mg/kg): effective | % variation of the total duration of immobility (rats [5]; 2.5 mg/kg): 76% | IC50 (serotonin transporter [6]): < 1000 nM | tolerability and mortality after 72 h (rat): well tolerated | EC50 (serotonin transporter [7]): < 1000 nM | IC50 [8]: < 100 nM | IC50 (dopamine transporter): < 10 nM

O[C@H](CN1CCC[C@H](COc2ccc(C(F)(F)F)cc2)C1)C1(c2ccc(Cl)cc2)CCC1 [compound 124, 1S-1-[1-(4-Chloro-phenyl)-cyclobutyl]-2-[(3S)-3-(4-trifluoromethyl-phenoxymethyl)-piperidin-1-yl]-ethanol]
tolerability and mortality after 72 h (mouse): well tolerated | EC50 (DAT): < 10 nM | % variation of the total duration of immobility (rats [1]; 2.5 mg/kg i.p.): 6% | % variation of the total duration of immobility (rats [1]; 10 mg/kg i.p.): 91% | EC50 [2]: < 1000 nM | Small Movement Occurrences (Sprague-Dawley rats [3]; 5 mg/kg i.p.): 484.5 ± 114.1 | Large Movement Occurrences (Sprague-Dawley rats [3]; 5 mg/kg i.p., 20 min): 228.7 ± 22.5 ^ | Small Movement Occurrences (Sprague-Dawley rats [3]; 5 mg/kg i.p., 20 min): 589.2 ± 50.4 ^ | Large Movement Occurrences (Sprague-Dawley rats [3]; 5 mg/kg i.p., 60 min): 74.3 ± 14.8 | Small Movement Occurrences (Sprague-Dawley rats [3]; 5 mg/kg i.p., 60 min): 232.8 ± 33.6 ^ | Large Movement Occurrences (Sprague-Dawley rats [3]; 5 mg/kg i.p., 120 min): 168.5 ± 61.5 ^ | Small Movement Occurrences (Sprague-Dawley rats [3]; 5 mg/kg i.p., 120 min): 443.1 ± 100.6 | Large Movement Occurrences (Sprague-Dawley rats [3]; 5 mg/kg i.p., 180 min): 212.5 ± 65.1 ^ | Large Movement Occurrences (Sprague-Dawley rats [3]; 10 mg/kg i.p., 20 min): 391.5 ± 63.3 | Small Movement Occurrences (Sprague-Dawley rats [3]; 10 mg/kg i.p., 20 min): 919.6 ± 96.4 | Large Movement Occurrences (Sprague-Dawley rats [3]; 10 mg/kg i.p., 60 min): 427.6 ± 95.8 | Small Movement Occurrences (Sprague-Dawley rats [3]; 10 mg/kg i.p., 60 min): 965.2 ± 153.9 | Large Movement Occurrences (Sprague-Dawley rats [3]; 10 mg/kg i.p., 120 min): 603.5 ± 97.4 | Small Movement Occurrences (Sprague-Dawley rats [3]; 10 mg/kg i.p., 120 min): 1201.4 ± 160.9 | locomotor activity compared to control animals (Sprague-Dawley rats [3]): significant increase | Large Movement Occurrences (Sprague-Dawley rats [4]; 1 hour): 655 ± 83 | Small Movement Occurrences (Sprague-Dawley rats [4]; 1 hour): 1258 ± 83 | Large Movement Occurrences (Sprague-Dawley rats [4]; 3 hours): 751 ± 122 | Small Movement Occurrences (Sprague-Dawley rats [4]; 3 hours): 1386 ± 96 | Large Movement Occurrences (Sprague-Dawley rats [4]; 5 hours): 616 ± 82 | Small Movement Occurrences (Sprague-Dawley rats [4]; 5 hours): 1277 ± 100 | Large Movement Occurrences (Sprague-Dawley rats [4]; 8 hours): 455 ± 69 | Small Movement Occurrences (Sprague-Dawley rats [4]; 8 hours): 1042 ± 109 | Large Movement Occurrences (Sprague-Dawley rats [4]; 24 hours): 440 ± 55 | Small Movement Occurrences (Sprague-Dawley rats [4]; 24 hours): 934 ± 87 | locomotor activity compared to control animals (Sprague-Dawley rats [4]): significant increase | % variation of the total duration of immobility (rats [5]; 1.0 mg/kg): 29% | % variation of the total duration of immobility (rats [5]; 2.0 mg/kg): 71% | effectiveness (statistically significant variation >30%) (rats [5]; 2.5 mg/kg): effective | % variation of the total duration of immobility (rats [5]; 2.5 mg/kg): 59% | IC50 (serotonin transporter [6]): < 1000 nM | tolerability and mortality after 72 h (rat): well tolerated | EC50 (serotonin transporter [7]): < 1000 nM | IC50 [8]: < 100 nM | IC50 (dopamine transporter): < 10 nM
